# According to patent publication US20070287752A1, “Ophthalmic Compositions Comprising A Branched, Glycerol Compound” (priority 2006, published 2007):
# Columns and labels:
# Experiment in all cases: Preservative/disinfectant system efficacy testing (log reduction)
# Type in all cases: cell-based
# [1] = test system: Fusarium solani (ATCC 36031)
# Method: (§1) The ophthalmic compositions are evaluated in accordance with specific procedures outlined by the US Food & Drug Administration and the International Organization for Standardization for the testing of microbiocidal efficacy.
# [2] = test system: Candida albicans (ATCC 10231)
# Method: as §1
# [3] = test system: Serratia marcescens (ATCC 13880)
# Method: as §1
# [4] = test system: Staphylococcus aureus (ATCC 6538)
# Method: as §1
# [5] = test system: Pseudomonas aeruginosa (ATCC 9027)
# Method: as §1
# [6] = 1 hr, Table 5A multi-purpose lens care solution, 10% organic soil, disinfectant concentrations as in label
# [7] = 1 hr, Table 8A multi-purpose lens care formulation, disinfectant concentrations as in label
# [8] = 1 hr, phosphate buffered saline, 10% organic soil, concentrations as in label (Table 4)
# [9] = 1 hr, phosphate buffered saline, concentrations as in label (Table 7)
# [10] = 4 hr, Table 5A multi-purpose lens care solution, 10% organic soil, disinfectant concentrations as in label
# [11] = 4 hr, Table 8A multi-purpose lens care formulation, disinfectant concentrations as in label
# [12] = 4 hr, phosphate buffered saline, 10% organic soil, concentrations as in label (Table 4)
# [13] = 4 hr, phosphate buffered saline, concentrations as in label (Table 7)
Compound,"log reduction F. solani [1, 7]","log reduction F. solani [1, 9]","log reduction F. solani [1, 11]","log reduction F. solani [1, 13]","log reduction C. albicans [2, 7]","log reduction C. albicans [2, 9]","log reduction C. albicans [2, 11]","log reduction C. albicans [2, 13]","log reduction S. marcescens [3, 7]","log reduction S. marcescens [3, 9]","log reduction S. marcescens [3, 11]","log reduction S. marcescens [3, 13]","log reduction S. aureus [4, 7]","log reduction S. aureus [4, 9]","log reduction S. aureus [4, 11]","log reduction S. aureus [4, 13]","log reduction P. aeruginosa [5, 7]","log reduction P. aeruginosa [5, 9]","log reduction P. aeruginosa [5, 11]","log reduction P. aeruginosa [5, 13]",also measured
"CCCCC(CC)CNC(=N)NC(=N)NCCCCCCNC(=N)NC(=N)NCC(CC)CCCC (stereo not drawn) [alexidine, reference compound]",3.1,2.3,4.2,2.3,2.0,3.2,3.0,3.8,4.1,2.0,>5.2,3.5,3.3,1.4,3.8,1.4,3.5,1.6,3.9,2.3,"log reduction F. solani [1, 6]: 3.1; log reduction F. solani [1, 8]: 2.3; log reduction F. solani [1, 10]: 4.2; log reduction F. solani [1, 12]: 2.3; log reduction C. albicans [2, 6]: 2.0; log reduction C. albicans [2, 8]: 3.2; log reduction C. albicans [2, 10]: 3.0; log reduction C. albicans [2, 12]: 3.8; log reduction S. marcescens [3, 6]: 4.1; log reduction S. marcescens [3, 8]: 2.0; log reduction S. marcescens [3, 10]: >5.2; log reduction S. marcescens [3, 12]: 3.5; log reduction S. aureus [4, 6]: 3.3; log reduction S. aureus [4, 8]: 1.4; log reduction S. aureus [4, 10]: 3.8; log reduction S. aureus [4, 12]: 1.4; log reduction P. aeruginosa [5, 6]: 3.5; log reduction P. aeruginosa [5, 8]: 1.6; log reduction P. aeruginosa [5, 10]: 3.9; log reduction P. aeruginosa [5, 12]: 2.3"
"CCCCC(CC)CNCC(O)CO (stereo not drawn) [EHAPD, 3-[(2-ethylhexyl)amino]-1,2-propanediol]",2.4,2.3,4.8,5.2,2.4,>5.0,2.6,>5.0,2.7,3.3,3.2,3.8,1.2,1.4,1.2,1.4,1.2,1.4,1.3,1.4,–
